In US20060263802A1 (priority 2003, published 2006):
“Also recorded” adds a separate entry of the source.

Tests used:
Assay type in all cases: binding
[1] = system: human monoclonal antibody CRJB
[2] = system: human monoclonal antibody CRJB; remark: listed apart in the source
[3] = system: human monoclonal antibody CR57
[4] = system: human monoclonal antibody CRJA
[5] = system: human monoclonal antibody CRJA; remark: listed apart in the source
[6] = system: human monoclonal antibody CR57; remark: listed apart in the source

Sequence | Binding of CRJB to linear peptide (PEPSCAN-ELISA signal) [1] | Binding of CRJB (10 μg/ml) to looped/cyclic peptide (PEPSCAN-ELISA signal) [2] | Binding of CR57 to linear peptide (PEPSCAN-ELISA signal) [3] | Binding of CRJA to linear peptide (PEPSCAN-ELISA signal) [4] | Binding of CRJA (10 μg/ml) to looped/cyclic peptide (PEPSCAN-ELISA signal) [5] | Binding of CR57 (10 μg/ml) to looped/cyclic peptide (PEPSCAN-ELISA signal) [6] | Binding of CRJB (10 μg/ml) to looped/cyclic peptide (PEPSCAN-ELISA) [2] | Binding of CRJA (10 μg/ml) to looped/cyclic peptide (PEPSCAN-ELISA) [5] | Binding of CR57 (10 μg/ml) to looped/cyclic peptide (PEPSCAN-ELISA) [6] | Binding of human monoclonal antibody CRJB to linear peptide (PEPSCAN-ELISA signal) [1] | Binding of CRJB to looped/cyclic peptide (PEPSCAN-ELISA signal) [2] | Binding of human monoclonal antibody CR57 to linear peptide (PEPSCAN-ELISA signal) [3] | Binding of human monoclonal antibody CRJA to linear peptide (PEPSCAN-ELISA signal) [4] | Binding of CRJA to looped/cyclic peptide (PEPSCAN-ELISA signal) [5] | Binding of CR57 to looped/cyclic peptide (PEPSCAN-ELISA signal) [6] | binding of antibody CRJB to looped/cyclic peptide (PEPSCAN OD) [2] | binding of antibody CR57 to looped/cyclic peptide (PEPSCAN OD) [6]
PNNLVVEDEGCTNLS | 107 | 60 | 78 | 86 | 96 | 100 | – | – | – | – | – | – | – | – | – | – | –
RLMDGTWVAMQTSNE | 113 | – | 100 | 99 | – | – | 89 | 82 | 96 | – | – | – | – | – | – | – | –
DGNVLIPEMQSSLLQ | 134 | – | 123 | 93 | – | – | 104 | 107 | 114 | – | – | – | – | – | – | – | –
LESIMTTKSVSFRRL | 114 | – | 48 | 94 | – | – | 78 | 91 | 94 | – | – | – | – | – | – | – | –
ACRAAYNWKMAGDPR | 116 | 93 | 82 | 93 | 110 | 138 | – | – | – | – | – | – | – | – | – | – | –
DFVEVHLPDVHNQVS | – | – | – | – | – | – | – | – | – | 141 | 92 | 96 | 92 | 113 | 113 | – | –
HNPYPDYRWLRTVKT | 108 | 69 | 86 | 98 | 65 | 85 | – | – | – | – | – | – | – | – | – | – | –
EILPSKGCLRVGGRC | 112 | – | 104 | 106 | – | – | 97 | 111 | 132 | – | – | – | – | – | – | – | –
PDVHNQVSGVDLGLP | – | – | – | – | – | – | – | – | – | 129 | 104 | 106 | 107 | 115 | 106 | – | –
WMPENPRLGMSCDIF | 113 | 206 | 88 | 97 | 164 | 199 | – | – | – | – | – | – | – | – | – | display reactivity; also recorded: clearly bound | clearly bound
EDEGCTNLSGFSYME | 90 | 68 | 54 | 65 | 54 | 76 | – | – | – | – | – | – | – | – | – | – | –
